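Test compounds were applied to cells in 96-well plates for 48 hours at 5 doses. The concentration for full growth arrest is given as TGI.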
Legend:
Test in all cases: NCI-60 cell line screen, 48 h
M19-MEL melanoma = test system: M19-MEL melanoma
KM20L2 colon = test system: KM20L2 colon
DMS 114 small cell lung = test system: DMS 114 small cell lung
DMS 273 small cell lung = test system: DMS 273 small cell lung
SNB-78 CNS = test system: SNB-78 CNS
DLD-1 colon = test system: DLD-1 colon
XF 498 CNS = test system: XF 498 CNS
HOP-18 NSCLC = test system: HOP-18 NSCLC

With `CCN(CC)CCNC(=O)c1ccc([N+](=O)[O-])cc1OC` as the molecule, how does the TGI (M19-MEL melanoma) read?
Its TGI is over 100 µM.

And the TGI (KM20L2 colon)?
Its TGI is over 100 µM.

And the TGI (DMS 114 small cell lung)?
Its TGI is over 100 µM.

And the TGI (DMS 273 small cell lung)?
Its TGI is over 100 µM.

What about the TGI (SNB-78 CNS) of the same molecule?
The TGI was over 100 µM.

And the TGI (DLD-1 colon)?
The TGI was over 100 µM.

What does the source list for `Cc1c(C(=O)CSc2nc3ccc([N+](=O)[O-])cc3[nH]2)c(=O)n(-c2ccccc2)n1C`?
TGI (M19-MEL melanoma): > 100 µM; TGI (DMS 114 small cell lung): > 100 µM; TGI (DMS 273 small cell lung): > 100 µM; TGI (XF 498 CNS): > 100 µM; TGI (DLD-1 colon): > 100 µM

`FC(F)(F)P1C2C=CC(CC2)C1(F)F` (stereo unspecified) was tested. Which TGI (M19-MEL melanoma) did it give?
The TGI was over 100 µM.

And the TGI (KM20L2 colon)?
The TGI was over 100 µM.

What about the TGI (DMS 114 small cell lung) of the same molecule?
The TGI was over 100 µM.

And the TGI (DMS 273 small cell lung)?
The TGI was over 100 µM.

And the TGI (SNB-78 CNS)?
The TGI was over 100 µM.

What about the TGI (XF 498 CNS) of the same molecule?
Its TGI is over 100 µM.

And the TGI (DLD-1 colon)?
The TGI was over 100 µM.

What about the TGI (HOP-18 NSCLC) of the same molecule?
Its TGI is over 100 µM.

What does the source list for `CCC1(OC(=O)CN2CCN(CCO)CC2)C(=O)OCc2c1cc1n(c2=O)Cc2cc3ccccc3nc2-1` (stereo unspecified)?
TGI (M19-MEL melanoma): 6.99 µM; TGI (KM20L2 colon): 7.46 µM; TGI (DMS 114 small cell lung): 16.8 µM; TGI (DMS 273 small cell lung): 0.367 µM; TGI (SNB-78 CNS): > 100 µM; TGI (XF 498 CNS): 14.2 µM; TGI (DLD-1 colon): > 100 µM; TGI (HOP-18 NSCLC): 25.8 µM

Which results are given for `COc1cc(C2C(Cl)C(=O)N2n2cnc3ccccc3c2=O)cc(OC)c1OC` (stereo unspecified)?
TGI (M19-MEL melanoma): > 100 µM; TGI (KM20L2 colon): > 100 µM; TGI (DMS 114 small cell lung): > 100 µM; TGI (DMS 273 small cell lung): > 100 µM; TGI (SNB-78 CNS): > 100 µM; TGI (XF 498 CNS): > 100 µM; TGI (DLD-1 colon): > 100 µM; TGI (HOP-18 NSCLC): > 100 µM

Which results are given for `CCOc1ccc(N2C(=O)C3c4[nH]c5ccccc5c4C4CCC(C(C)(C)C)CC4C3C2=O)cc1` (stereo unspecified)?
TGI (KM20L2 colon): > 100 µM; TGI (DMS 114 small cell lung): > 100 µM; TGI (DMS 273 small cell lung): > 100 µM; TGI (SNB-78 CNS): > 100 µM; TGI (XF 498 CNS): > 100 µM; TGI (DLD-1 colon): > 100 µM; TGI (HOP-18 NSCLC): > 100 µM

What does the source list for `O=C1CC2CC=C[C@H]3c4cc5c(cc4C(=O)N1C23)OCO5` (stereo partly specified)?
TGI (M19-MEL melanoma): > 50 µM; TGI (KM20L2 colon): > 50 µM; TGI (DMS 114 small cell lung): > 50 µM; TGI (DMS 273 small cell lung): > 50 µM; TGI (SNB-78 CNS): > 50 µM; TGI (DLD-1 colon): > 50 µM

For `O=C1C=C(N2CCCC2)C=C(N2CCCC2)C1`, which TGI (M19-MEL melanoma) is on record?
Its TGI is 91.2 µM.

What about the TGI (KM20L2 colon) of the same molecule?
The TGI was over 100 µM.

And the TGI (DMS 114 small cell lung)?
The TGI was over 100 µM.

And the TGI (DMS 273 small cell lung)?
The TGI was over 100 µM.

What about the TGI (SNB-78 CNS) of the same molecule?
Its TGI is over 100 µM.

What about the TGI (XF 498 CNS) of the same molecule?
Its TGI is over 100 µM.

What about the TGI (DLD-1 colon) of the same molecule?
Its TGI is over 100 µM.

And the TGI (HOP-18 NSCLC)?
Its TGI is over 100 µM.
